Earlier results as cited in US20120289594A1, “ORAL DOSAGE FORM” (Orion Corporation, priority 2005, published 2012).

What was measured:
[1] = background statement
[2] = background statement; remark: listed apart in the source

- absorption in the gastrointestinal tract [1]: quickly absorbed
- water solubility [2]: very low
SMILES: CCN(CC)C(=O)/C(C#N)=C/c1cc(O)c(O)c([N+](=O)[O-])c1 [Entacapone, (E)-2-cyano-3-(3,4-dihydroxy-5-nitrophenyl)-N-diethyl-2 propenamide]
